From PMC12848717, “Discovery of Encrypted Peptides in a Human Matrix Metallopeptidase” (JACS Au, 2025)
Where two headings read alike, the source gives them in different places. Ends that are not written are not given here.

Key:
[1] = tested on: S. epidermidis ATCC 35984; details: for MIC after treatment 1: serial exposure at MIC/2, treatment 1 of 21; for MIC after treatment 2: serial exposure at MIC/2, treatment 2 of 21; for MIC after treatment 3: serial exposure at MIC/2, treatment 3 of 21; for MIC after treatment 4: serial exposure at MIC/2, treatment 4 of 21; for MIC after treatment 5: serial exposure at MIC/2, treatment 5 of 21; for MIC after treatment 6: serial exposure at MIC/2, treatment 6 of 21; for MIC after treatment 7: serial exposure at MIC/2, treatment 7 of 21; for MIC after treatment 8: serial exposure at MIC/2, treatment 8 of 21; for MIC after treatment 9: serial exposure at MIC/2, treatment 9 of 21; for MIC after treatment 10: serial exposure at MIC/2, treatment 10 of 21; for MIC after treatment 11: serial exposure at MIC/2, treatment 11 of 21; for MIC after treatment 13: serial exposure at MIC/2, treatment 13 of 21; for MIC after treatment 14: serial exposure at MIC/2, treatment 14 of 21; for MIC after treatment 15: serial exposure at MIC/2, treatment 15 of 21; for MIC after treatment 16: serial exposure at MIC/2, treatment 16 of 21; for MIC after treatment 17: serial exposure at MIC/2, treatment 17 of 21; for MIC after treatment 18: serial exposure at MIC/2, treatment 18 of 21; for MIC after treatment 19: serial exposure at MIC/2, treatment 19 of 21; for MIC after treatment 20: serial exposure at MIC/2, treatment 20 of 21; for MIC after treatment 21: serial exposure at MIC/2, treatment 21 of 21
[2] = tested on: A. baumannii ATCC 19606; details: for MIC after treatment 1: serial exposure at MIC/2, treatment 1 of 21; for MIC after treatment 2: serial exposure at MIC/2, treatment 2 of 21; for MIC after treatment 3: serial exposure at MIC/2, treatment 3 of 21; for MIC after treatment 4: serial exposure at MIC/2, treatment 4 of 21; for MIC after treatment 5: serial exposure at MIC/2, treatment 5 of 21; for MIC after treatment 6: serial exposure at MIC/2, treatment 6 of 21; for MIC after treatment 7: serial exposure at MIC/2, treatment 7 of 21; for MIC after treatment 8: serial exposure at MIC/2, treatment 8 of 21; for MIC after treatment 9: serial exposure at MIC/2, treatment 9 of 21; for MIC after treatment 10: serial exposure at MIC/2, treatment 10 of 21; for MIC after treatment 11: serial exposure at MIC/2, treatment 11 of 21; for MIC after treatment 13: serial exposure at MIC/2, treatment 13 of 21; for MIC after treatment 14: serial exposure at MIC/2, treatment 14 of 21; for MIC after treatment 15: serial exposure at MIC/2, treatment 15 of 21; for MIC after treatment 16: serial exposure at MIC/2, treatment 16 of 21; for MIC after treatment 17: serial exposure at MIC/2, treatment 17 of 21; for MIC after treatment 18: serial exposure at MIC/2, treatment 18 of 21; for MIC after treatment 19: serial exposure at MIC/2, treatment 19 of 21; for MIC after treatment 20: serial exposure at MIC/2, treatment 20 of 21; for MIC after treatment 21: serial exposure at MIC/2, treatment 21 of 21
[3] = tested on: Human coronavirus 229E (HCoV-229E); details: plaque reduction
[4] = Table S4, serial exposure at MIC/2, treatment 12 of 21
[5] = Table S3, serial exposure at MIC/2, treatment 12 of 21
[6] = read-out: IC50, co-treatment, Vero-76 cells exposed to virus and peptide simultaneously, 1 h, 37 °C
[7] = read-out: IC50, virus pretreatment, virus incubated with peptide 1 h, 37 °C before infection

Colistin [reference compound]
MIC after treatment 1 ([1]; Table S4): 8 µM
MIC after treatment 2 ([1]; Table S4): 8 µM
MIC after treatment 3 ([1]; Table S4): 8 µM
MIC after treatment 4 ([1]; Table S4): 8 µM
MIC after treatment 5 ([1]; Table S4): 8 µM
MIC after treatment 6 ([1]; Table S4): 8 µM
MIC after treatment 7 ([1]; Table S4): 8 µM
MIC after treatment 8 ([1]; Table S4): 8 µM
MIC after treatment 9 ([1]; Table S4): 8 µM
MIC after treatment 10 ([1]; Table S4): 8 µM
MIC after treatment 11 ([1]; Table S4): 8 µM
MIC after treatment 12 [1, 4]: 8 µM
MIC after treatment 13 ([1]; Table S4): 8 µM
MIC after treatment 14 ([1]; Table S4): 8 µM
MIC after treatment 15 ([1]; Table S4): 8 µM
MIC after treatment 16 ([1]; Table S4): 8 µM
MIC after treatment 17 ([1]; Table S4): 8 µM
MIC after treatment 18 ([1]; Table S4): 8 µM
MIC after treatment 19 ([1]; Table S4): 8 µM
MIC after treatment 20 ([1]; Table S4): 8 µM
MIC after treatment 21 ([1]; Table S4): 8 µM
MIC after treatment 1 ([2]; Table S3): 4 µM
MIC after treatment 2 ([2]; Table S3): 4 µM
MIC after treatment 3 ([2]; Table S3): 4 µM
MIC after treatment 4 ([2]; Table S3): 4 µM
MIC after treatment 5 ([2]; Table S3): 4 µM
MIC after treatment 6 ([2]; Table S3): 4 µM
MIC after treatment 7 ([2]; Table S3): 4 µM
MIC after treatment 8 ([2]; Table S3): 4 µM
MIC after treatment 9 ([2]; Table S3): 4 µM
MIC after treatment 10 ([2]; Table S3): 4 µM
MIC after treatment 11 ([2]; Table S3): 4 µM
MIC after treatment 12 [2, 5]: 4 µM
MIC after treatment 13 ([2]; Table S3): 4 µM
MIC after treatment 14 ([2]; Table S3): 4 µM
MIC after treatment 15 ([2]; Table S3): 4 µM
MIC after treatment 16 ([2]; Table S3): 4 µM
MIC after treatment 17 ([2]; Table S3): 4 µM
MIC after treatment 18 ([2]; Table S3): 4 µM
MIC after treatment 19 ([2]; Table S3): 4 µM
MIC after treatment 20 ([2]; Table S3): 4 µM
MIC after treatment 21 ([2]; Table S3): 4 µM

PYLLLGRWRKKHLTFRILNL [r(P)YLL19]
MIC after treatment 12 ([1]; ATCC 35984): 5 µM
MIC after treatment 1 ([1]; Table S4): 5 µM
MIC after treatment 2 ([1]; Table S4): 5 µM
MIC after treatment 3 ([1]; Table S4): 5 µM
MIC after treatment 4 ([1]; Table S4): 5 µM
MIC after treatment 5 ([1]; Table S4): 5 µM
MIC after treatment 6 ([1]; Table S4): 5 µM
MIC after treatment 7 ([1]; Table S4): 5 µM
MIC after treatment 8 ([1]; Table S4): 5 µM
MIC after treatment 9 ([1]; Table S4): 5 µM
MIC after treatment 10 ([1]; Table S4): 5 µM
MIC after treatment 11 ([1]; Table S4): 5 µM
MIC after treatment 13 ([1]; Table S4): 5 µM
MIC after treatment 14 ([1]; Table S4): 5 µM
MIC after treatment 15 ([1]; Table S4): 5 µM
MIC after treatment 16 ([1]; Table S4): 5 µM
MIC after treatment 17 ([1]; Table S4): 5 µM
MIC after treatment 18 ([1]; Table S4): 5 µM
MIC after treatment 19 ([1]; Table S4): 5 µM
MIC after treatment 20 ([1]; Table S4): 5 µM
MIC after treatment 21 ([1]; Table S4): 5 µM
IC50 [3, 6]: 12.5 µM
IC50 [3, 7]: 0.56 µM
MIC after treatment 12 ([2]; ATCC 19606): 5 µM
MIC after treatment 1 ([2]; Table S3): 5 µM
MIC after treatment 2 ([2]; Table S3): 5 µM
MIC after treatment 3 ([2]; Table S3): 5 µM
MIC after treatment 4 ([2]; Table S3): 5 µM
MIC after treatment 5 ([2]; Table S3): 5 µM
MIC after treatment 6 ([2]; Table S3): 5 µM
MIC after treatment 7 ([2]; Table S3): 5 µM
MIC after treatment 8 ([2]; Table S3): 5 µM
MIC after treatment 9 ([2]; Table S3): 5 µM
MIC after treatment 10 ([2]; Table S3): 5 µM
MIC after treatment 11 ([2]; Table S3): 5 µM
MIC after treatment 13 ([2]; Table S3): 5 µM
MIC after treatment 14 ([2]; Table S3): 5 µM
MIC after treatment 15 ([2]; Table S3): 5 µM
MIC after treatment 16 ([2]; Table S3): 5 µM
MIC after treatment 17 ([2]; Table S3): 5 µM
MIC after treatment 18 ([2]; Table S3): 5 µM
MIC after treatment 19 ([2]; Table S3): 5 µM
MIC after treatment 20 ([2]; Table S3): 5 µM
MIC after treatment 21 ([2]; Table S3): 5 µM

PYLLLGRWRKKHLTFRILNLPSTLPPHTARAALR [r(P)YLL33]
MIC after treatment 12 ([1]; ATCC 35984): 5 µM
MIC after treatment 1 ([1]; Table S4): 5 µM
MIC after treatment 2 ([1]; Table S4): 5 µM
MIC after treatment 3 ([1]; Table S4): 5 µM
MIC after treatment 4 ([1]; Table S4): 5 µM
MIC after treatment 5 ([1]; Table S4): 5 µM
MIC after treatment 6 ([1]; Table S4): 5 µM
MIC after treatment 7 ([1]; Table S4): 5 µM
MIC after treatment 8 ([1]; Table S4): 5 µM
MIC after treatment 9 ([1]; Table S4): 5 µM
MIC after treatment 10 ([1]; Table S4): 5 µM
MIC after treatment 11 ([1]; Table S4): 5 µM
MIC after treatment 13 ([1]; Table S4): 5 µM
MIC after treatment 14 ([1]; Table S4): 5 µM
MIC after treatment 15 ([1]; Table S4): 5 µM
MIC after treatment 16 ([1]; Table S4): 5 µM
MIC after treatment 17 ([1]; Table S4): 5 µM
MIC after treatment 18 ([1]; Table S4): 5 µM
MIC after treatment 19 ([1]; Table S4): 5 µM
MIC after treatment 20 ([1]; Table S4): 5 µM
MIC after treatment 21 ([1]; Table S4): 5 µM
IC50 [3, 6]: 27.8 µM
IC50 [3, 7]: 16.4 µM
MIC after treatment 12 ([2]; ATCC 19606): 5 µM
MIC after treatment 1 ([2]; Table S3): 5 µM
MIC after treatment 2 ([2]; Table S3): 5 µM
MIC after treatment 3 ([2]; Table S3): 5 µM
MIC after treatment 4 ([2]; Table S3): 5 µM
MIC after treatment 5 ([2]; Table S3): 5 µM
MIC after treatment 6 ([2]; Table S3): 5 µM
MIC after treatment 7 ([2]; Table S3): 5 µM
MIC after treatment 8 ([2]; Table S3): 5 µM
MIC after treatment 9 ([2]; Table S3): 5 µM
MIC after treatment 10 ([2]; Table S3): 5 µM
MIC after treatment 11 ([2]; Table S3): 5 µM
MIC after treatment 13 ([2]; Table S3): 5 µM
MIC after treatment 14 ([2]; Table S3): 5 µM
MIC after treatment 15 ([2]; Table S3): 5 µM
MIC after treatment 16 ([2]; Table S3): 5 µM
MIC after treatment 17 ([2]; Table S3): 5 µM
MIC after treatment 18 ([2]; Table S3): 5 µM
MIC after treatment 19 ([2]; Table S3): 5 µM
MIC after treatment 20 ([2]; Table S3): 5 µM
MIC after treatment 21 ([2]; Table S3): 5 µM

Polymyxin B [reference compound]
MIC after treatment 1 ([1]; Table S4): 4 µM
MIC after treatment 2 ([1]; Table S4): 4 µM
MIC after treatment 3 ([1]; Table S4): 4 µM
MIC after treatment 4 ([1]; Table S4): 4 µM
MIC after treatment 5 ([1]; Table S4): 4 µM
MIC after treatment 6 ([1]; Table S4): 4 µM
MIC after treatment 7 ([1]; Table S4): 4 µM
MIC after treatment 8 ([1]; Table S4): 4 µM
MIC after treatment 9 ([1]; Table S4): 4 µM
MIC after treatment 10 ([1]; Table S4): 4 µM
MIC after treatment 11 ([1]; Table S4): 4 µM
MIC after treatment 12 [1, 4]: 4 µM
MIC after treatment 13 ([1]; Table S4): 4 µM
MIC after treatment 14 ([1]; Table S4): 4 µM
MIC after treatment 15 ([1]; Table S4): 4 µM
MIC after treatment 16 ([1]; Table S4): 4 µM
MIC after treatment 17 ([1]; Table S4): 4 µM
MIC after treatment 18 ([1]; Table S4): 4 µM
MIC after treatment 19 ([1]; Table S4): 4 µM
MIC after treatment 20 ([1]; Table S4): 4 µM
MIC after treatment 21 ([1]; Table S4): 4 µM
MIC after treatment 1 ([2]; Table S3): 2 µM
MIC after treatment 2 ([2]; Table S3): 2 µM
MIC after treatment 3 ([2]; Table S3): 2 µM
MIC after treatment 4 ([2]; Table S3): 2 µM
MIC after treatment 5 ([2]; Table S3): 2 µM
MIC after treatment 6 ([2]; Table S3): 2 µM
MIC after treatment 7 ([2]; Table S3): 2 µM
MIC after treatment 8 ([2]; Table S3): 2 µM
MIC after treatment 9 ([2]; Table S3): 2 µM
MIC after treatment 10 ([2]; Table S3): 2 µM
MIC after treatment 11 ([2]; Table S3): 2 µM
MIC after treatment 12 [2, 5]: 2 µM
MIC after treatment 13 ([2]; Table S3): 2 µM
MIC after treatment 14 ([2]; Table S3): 2 µM
MIC after treatment 15 ([2]; Table S3): 2 µM
MIC after treatment 16 ([2]; Table S3): 2 µM
MIC after treatment 17 ([2]; Table S3): 2 µM
MIC after treatment 18 ([2]; Table S3): 2 µM
MIC after treatment 19 ([2]; Table S3): 2 µM
MIC after treatment 20 ([2]; Table S3): 2 µM
MIC after treatment 21 ([2]; Table S3): 2 µM
